Experimental data published in DBAASP.
≈ marks a conversion by molar mass, not a printed value.

Tests used:
Assay in all cases: ≥ marks a high value that may be exact or a test limit, other limits are often not marked, values filed in µg/mL are converted to µM
[1] = tested on: Klebsiella pneumoniae ATCC BAA-2146
[2] = tested on: Pseudomonas aeruginosa ATCC 27853
Pseudomonas aeruginosa = tested on: Pseudomonas aeruginosa
[3] = tested on: Staphylococcus aureus ATCC 43300
[4] = tested on: Klebsiella pneumoniae ATCC 13883
[5] = tested on: Bacillus subtilis ATCC 6051
[6] = tested on: Cryptococcus neoformans ATCC 208821
[7] = tested on: Candida albicans ATCC 90028
[8] = tested on: Acinetobacter baumannii ATCC 19606
Acinetobacter baumannii = tested on: Acinetobacter baumannii
[9] = tested on: Escherichia coli ATCC 25922
[10] = tested on: Klebsiella pneumoniae ATCC 700603
Klebsiella pneumoniae = tested on: Klebsiella pneumoniae
[11] = tested on: Listeria monocytogenes EGD
[12] = tested on: Candida albicans ATCC 2002
Escherichia coli ML-35p = tested on: Escherichia coli ML-35p
Bacillus subtilis = tested on: Bacillus subtilis
[13] = tested on: Staphylococcus aureus ATCC 25923
[14] = tested on: Streptococcus pyogenes ATCC 19615
Escherichia coli = tested on: Escherichia coli
[15] = tested on: Staphylococcus epidermidis ATCC 51625
[16] = tested on: Salmonella enterica subsp. enterica serovar Typhimurium ATCC 14028
[17] = tested on: Staphylococcus aureus ATCC BAA-44
[18] = tested on: Enterococcus faecalis ATCC 29212

CC[C@H](C)[C@@H]1NC(=O)CNC(=O)[C@H](CCCN=C(N)N)NC(=O)[C@H](Cc2ccc(O)cc2)NC(=O)[C@@H]2CSSC[C@H](NC1=O)C(=O)N[C@@H](Cc1ccc(O)cc1)C(=O)N[C@@H](C)C(=O)N[C@@H](CCCN=C(N)N)C(=O)N[C@H](C(=O)N[C@@H](CCCN=C(N)N)C(=O)O)CSSC[C@H](NC(=O)[C@H](Cc1c[nH]c3ccccc13)NC(=O)[C@@H](N)CCCCN)C(=O)N[C@@H](Cc1ccccc1)C(=O)N[C@@H](CCCN=C(N)N)C(=O)N[C@@H](C(C)C)C(=O)N2 [KWCFRVCYRGICYARCR]
MIC [1]: 0.115 µM (≈ 0.25 µg/mL) | MIC [2]: 0.0572 µM (≈ 0.125 µg/mL) | MIC (Pseudomonas aeruginosa): 0.115 µM (≈ 0.25 µg/mL) | MIC [3]: 0.229 µM (≈ 0.499 µg/mL) | MIC [4]: 0.0275 µM (≈ 0.0599 µg/mL) | MIC [5]: 0.0572 µM (≈ 0.125 µg/mL) | MIC [6]: 0.115 µM (≈ 0.25 µg/mL) | MIC [7]: 3.66 µM (≈ 7.99 µg/mL) | MIC [8]: 0.0572 µM (≈ 0.125 µg/mL) | MIC (Acinetobacter baumannii): 0.0572 µM (≈ 0.125 µg/mL) | MIC [9]: 0.0572 µM (≈ 0.125 µg/mL) | MIC [10]: 0.229 µM (≈ 0.499 µg/mL) | MIC (Klebsiella pneumoniae): 0.458 µM (≈ 0.998 µg/mL)

CC(C)C[C@H](NC(=O)[C@H](C)NC(=O)[C@@H](NC(=O)[C@H](C)NC(=O)[C@H](CC(C)C)NC(=O)[C@H](CCCCN)NC(=O)[C@H](Cc1ccccc1)NC(=O)[C@H](CCCCN)NC(=O)[C@H](C)NC(=O)[C@@H](N)CO)C(C)C)C(=O)NCC(=O)N[C@@H](CCC(N)=O)C(=O)N[C@@H](Cc1ccccc1)C(=O)N[C@@H](CCCCN)C(=O)N[C@@H](CCC(=O)O)C(=O)N[C@@H](CCCCN)C(=O)N[C@@H](CC(C)C)C(=O)N[C@@H](CC(C)C)C(=O)N[C@@H](CC(C)C)C(=O)N[C@@H](C)C(N)=O [SAKFKLAVALGQFKEKLLLA]
MIC [11]: ≥ 128 µM

CC[C@H](C)[C@H](NC(=O)[C@H](C)NC(=O)[C@@H](NC(=O)[C@@H](NC(=O)[C@H](CCCCN)NC(=O)[C@@H](NC(=O)[C@H](CCCCN)NC(=O)[C@H](CC(=O)O)NC(=O)[C@H](CCCN=C(N)N)NC(=O)[C@@H](NC(=O)[C@@H](N)CO)[C@@H](C)CC)[C@@H](C)CC)[C@@H](C)O)[C@@H](C)CC)C(=O)N[C@@H](CC(=O)O)C(=O)N[C@@H](CC(C)C)C(=O)N[C@@H](C)C(=O)N[C@@H](CCCCN)C(=O)N[C@@H](CO)C(=O)N[C@@H](C)C(=O)NCC(=O)N[C@H](C(=O)NCC(=O)N[C@H](C(=O)N[C@@H](CC(C)C)C(=O)N[C@@H](CCCCN)C(=O)N[C@H](C(=O)N[C@@H](CC(C)C)C(=O)N[C@H](C(=O)N[C@H]1CSSC[C@@H](C(=O)O)NC(=O)[C@H](CO)NC(=O)[C@H](CCCCN)NC(=O)[C@H](CC(=O)O)NC(=O)[C@H](CC(C)C)NC(=O)[C@H](CCCCN)NC1=O)[C@@H](C)CC)[C@@H](C)O)C(C)C)[C@@H](C)O [SIRDKIKTIAIDLAKSAGTGVLKTLICKLDKSC]
MIC [12]: 1.61 µM (≈ 5.63 µg/mL) | MIC [2]: > 28.5 µM | MIC (Escherichia coli ML-35p): 7.13 µM (≈ 25 µg/mL) | MIC (Bacillus subtilis): 2.68 µM (≈ 9.37 µg/mL) | MIC [13]: 1.34 µM (≈ 4.69 µg/mL)

CC(C)C[C@H](NC(=O)[C@H](CO)NC(=O)[C@H](CCCN=C(N)N)NC(=O)[C@H](CCCCN)NC(=O)[C@@H](NC(=O)[C@@H](NC(=O)CNC(=O)[C@H](CCCN=C(N)N)NC(=O)[C@H](Cc1cnc[nH]1)NC(=O)[C@H](Cc1c[nH]c2ccccc12)NC(=O)[C@H](Cc1ccccc1)NC(=O)[C@H](Cc1cnc[nH]1)NC(=O)[C@H](Cc1ccc(O)cc1)NC(=O)[C@@H](N)Cc1ccc(O)cc1)C(C)C)[C@@H](C)O)C(=O)N[C@@H](CO)C(=O)N1CCC[C@H]1C(=O)N[C@@H](Cc1cnc[nH]1)C(=O)N[C@@H](CCCN=C(N)N)C(=O)N1CCC[C@H]1C(=O)N[C@@H](CCCN=C(N)N)C(=O)N[C@@H](Cc1cnc[nH]1)C(=O)N[C@@H](CO)C(=O)N[C@@H](CCCN=C(N)N)C(=O)O [YYHFWHRGVTKRSLSPHRPRHSR]
MIC [2]: 4 µM (≈ 11.8 µg/mL) | MIC [14]: 6 µM (≈ 17.8 µg/mL) | MIC [4]: 2 µM (≈ 5.92 µg/mL) | MIC (Escherichia coli): 4 µM (≈ 11.8 µg/mL) | MIC (Bacillus subtilis): 4 µM (≈ 11.8 µg/mL) | MIC [15]: 6 µM (≈ 17.8 µg/mL) | MIC [16]: 4 µM (≈ 11.8 µg/mL) | MIC [13]: 4 µM (≈ 11.8 µg/mL) | MIC [17]: 6 µM (≈ 17.8 µg/mL) | MIC [18]: 4 µM (≈ 11.8 µg/mL)
